For data set [1] the following is noted: cited from earlier work.
Data set [2] in a line: pKa of counterions and active agents. It counts as physicochemical. The conditions noted are these: active vs its counterion; read-out: difference between the pKa of the active and the counterion.
The conditions of data set [3]: pH 6.5; cited from earlier work.
Where [4] appears, read: counterion, first value of the cell, some values marked estimated.

SMILES strings stand for the structures. Values after ≈ are worked out from the molar mass of the structure shown. Values joined by “and” are separate entries in the source; they are usually repeats but may differ in a detail not shown here. Equal values may be shown once. Where a name gives a salt, the structure may show the parent alone. Read-outs that look alike come from different tables or passages of the source.

As for `COc1ccc(-c2ccc3cc(C(=O)O)ccc3c2)cc1C12CC3CC(CC(C3)C1)C2` [Adapalene, reference compound], the pKa in data set [1] (active agent) was 4.2; in data set [2], 5.2.

For `Cc1c(C)c2c(c(C)c1OP(=O)(O)O)CCC(C)(CCCC(C)CCCC(C)CCCC(C)C)O2` (stereo not drawn) [Tocopherol phosphate, tocopherol phosphate], the pKa in data set [1] (setting [4]) is below 2 estimated.

`Cc1c(C)c2c(c(C)c1OS(=O)(=O)O)CCC(C)(CCCC(C)CCCC(C)CCCC(C)C)O2` (stereo not drawn) [Tocopherol sulfate, tocopherol sulfate]: the pKa in data set [1] (setting [4]) is on record as below 1 estimated. Consider `CC(C)CCC[C@@H](C)[C@H]1CC[C@H]2[C@@H]3CC=C4CC(OS(=O)(=O)O)CC[C@]4(C)[C@H]3CC[C@]12C` (stereo partly drawn) [Cholesteryl sulfate, cholesteryl sulfate], for which the pKa in data set [1] (setting [4]) is below 1 estimated.

With `c1ccc(CCNCc2ccccc2)cc1` [N-(benzyl)-2-phenylethan-1-amine], the pKa in data set [1] (setting [4]) is listed as 9.4. With `CC(C)CCC[C@@H](C)[C@H]1CC[C@H]2[C@@H]3CC=C4C[C@@H](OP(=O)(O)O)CC[C@]4(C)[C@H]3CC[C@]12C` [Cholesteryl phosphate, cholesteryl phosphate], the pKa in data set [1] (setting [4]) is listed as below 2 estimated. For `CC(C)(C)c1ccc2c(S(=O)(=O)O)c(C(C)(C)C)ccc2c1S(=O)(=O)O` [2,6-di-tert-butylnaphthalene-1,5-disulfonate], the pKa is listed as −2.32 in data set [1] (setting [4]) and −3.05 in data set [1] (counterion, second value printed in the same cell). On to `c1ccc(CNCCNCc2ccccc2)cc1` [N,N′-dibenzylethylene diamine], for which the pKa in data set [1] (setting [4]) is recorded as 6.2. Take `O=C(CC(C(=O)OC1CCCCC1)S(=O)(=O)O)OC1CCCCC1` (stereo not drawn) [1,4-dicyclohexyloxy-1,4-dioxobutane-2-sulfonate]: in data set [1] (setting [4]), the pKa is below 1 estimated. Consider `C#Cc1cccc(Nc2ncnc3cc(OCCOC)c(OCCOC)cc23)c1` [Erlotinib, N-(3-ethynylphenyl)-6,7-bis(2-methoxyethoxy) quinazolin-4-amine, reference compound], for which the pKa was 5.42 and 5.4 in data set [1] (active agent); at least 4.4 in data set [2]. For the same compound, the “solubility in phosphate buffered saline” value in data set [3] is 1 µg/mL (≈ 2.54 µM). For `O=S(=O)(O)c1ccc2ccccc2c1` [2-Naphthalenesulfonate, 2-naphthalene sulfonate], the pKa in data set [1] (setting [4]) was 0.17. For `CC(C)CCOC(=O)CC(C(=O)OCCC(C)C)S(=O)(=O)O` (stereo not drawn) [1,4-diisopentyloxy-1,4-dioxobutane-2-sulfonate], the pKa in data set [1] (setting [4]) is reported as below 1 estimated. Consider `CC(C)c1ccc2c(c1)CC[C@H]1[C@](C)(CNCCNC[C@]3(C)CCC[C@]4(C)c5ccc(C(C)C)cc5CC[C@@H]34)CCC[C@]21C` [N^1,N^2-bis(((1 R,4aS,10aR)-7-isopropyl-1,4a-dimethyl-1,2,3,4,4a,9,10,10a-octahydrophenanthren-1-yl)methyl)ethane-1,2-diamine], for which, in data set [1] (setting [4]), the pKa is recorded as 6.6.

As for `CC(C)(C)c1ccc2c(S(=O)(=O)O)c(C(C)(C)C)ccc2c1` [2,6-di-tert-butylnaphthalene-1-sulfonate], the pKa in data set [1] (setting [4]) is on record as −2.48.

The values are drawn from patent US20170209375A1, “NANOPARTICLE FORMULATIONS OF LOW-WATER SOLUBILITY ACTIVES” (Bend Research, Inc., priority 2014, published 2017).
